# Several values for one entry are separate records, joined by “and”; a condition that tells them apart may be missing. Equal values may be shown once. Read-outs that look alike come from different tables or passages of the source.
# Key:
# [1] = molecular target: T1, HSV-2 induced pyrimidine deoxyribonucleoside kinase (Human herpesvirus 2 strain HG52, UniProt P89446); experiment: Phosphorylation by HSV-2 induced pyrimidine deoxyribonucleoside kinase; type: biochemical
# T1 construct: preparation not described in the excerpts
# From the text: The following spots were eluted into H2 O and scanned from 225 to 350 nm: (a) standard, (b) F3 methyl dC standard, […] spot after cytidine deaminase treatment of F3 dT and […] spot after cytidine deaminase treatment of F3 methyl dC. The u.v. absorption profile of F3 dT derived from deamination of F3 methyl dC is identical to that obtained from authentic F3 dT.
# Solutions a, c, and d, above, were adjusted to the same O. D. and used as substrates for HSV-2 induced pyrimidine deoxyribonucleoside kinase. Results:
# Stock solutions of F3 dT and F3 methyl dC were made up and adjusted to the same concentration as the F3 dT and F3 methyl dC purified chromatographically (solutions a and b, respectively). Usually, F3 methyl dC is phosphorylated 1/6 of the extent that F3 dT is phosphorylated. […] This experiment was performed twice. Results:
# Values for chromatographically purified samples are probably lower due to impurities arising from non-acid washed paper.
# Metabolic stability = conditions: versus prior antiviral agents
# [2] = Incubation with acetate buffer (pH 4.5); type: physicochemical; conditions: 9 hours
# Protocol: (§1) The results of incubation with HNO2 (pH 4.5) at room temperature were identical to those obtained above.
# HSV-1 = experiment: Antiviral activity vs HSV-1 in HEp-2 cells (plaque assay in BHK cells); type: cell-based; conditions: for Log10 S.F. vs HSV-1: + H4 U (from FIG. 3)
# Protocol: (§2) The culture medium containing the nucleoside analogs at varying concentrations are added to the infected cultures. In the case of HEp-2 cells which contain high deaminase levels, H4 U is incorporated into the medium. At 48 hours, virus is harvested from the cultures by freezing and thawing. The virus produced from each culture is titred by plaque assay in BHK cells. By using this protocol the antiviral effectiveness of F3 methyl dC can be compared directly with the effectiveness of other antiviral agents. Furthermore, by including H4 U in the medium, the effectiveness of F3 methyl dC can be determined without deamination at the nucleoside level.
# HSV-2 = experiment: Antiviral activity vs HSV-2 in HEp-2 cells (plaque assay in BHK cells); type: cell-based; conditions: for Average Log10 S.F.: +H4 U
# Protocol: as §2
# cytidine deaminase = experiment: Incubation with crude cytidine deaminase extract of HEP-2 cells (deamination); type: in vitro ADME, human; conditions: crude HEP-2 cytidine deaminase extract; Whatman 3MM chromatography
# [3] = Survival / toxicity in the mouse; conditions: in vivo
# Protocol: That is, 3 mg/kg body weight to 75 mg/kg body weight; for example, about 10 mg/kg body weight per day for 7 days or 700 mg for a 70 kg man per day for 7 days. […] 100 percent survival was obtained with a dose of 50 mg.
# Solubility = type: physicochemical
# HEp-2 cells = experiment: Cytotoxicity vs HEp-2 cells (colony formation, % survival); conditions: for % Survival: 2880 min
# [4] = as above; conditions: human, hep-2 cells; for viability at 48 h, 60 µM: % S of HEp-2 cells, 0.06 mM; for viability at 48 h, 3 µM: 0.003 mM; for viability at 48 h, 30 µM: 0.03 mM; for viability at 48 h, 300 µM: 0.3 mM
# [5] = Incubation with HNO2 (pH 4.5) at room temperature; type: physicochemical; conditions: 9 hours
# Protocol: as §1
# [6] = test system: Herpes-varicella-zoster virus (VZV); experiment: Antiviral activity against cells infected with Herpes-varicella-zoster virus; type: cell-based
# [7] = % Survival, +H4 U 500 μg/ml (experiment 3 and 4)
# T1 sequence (P89446 whole entry): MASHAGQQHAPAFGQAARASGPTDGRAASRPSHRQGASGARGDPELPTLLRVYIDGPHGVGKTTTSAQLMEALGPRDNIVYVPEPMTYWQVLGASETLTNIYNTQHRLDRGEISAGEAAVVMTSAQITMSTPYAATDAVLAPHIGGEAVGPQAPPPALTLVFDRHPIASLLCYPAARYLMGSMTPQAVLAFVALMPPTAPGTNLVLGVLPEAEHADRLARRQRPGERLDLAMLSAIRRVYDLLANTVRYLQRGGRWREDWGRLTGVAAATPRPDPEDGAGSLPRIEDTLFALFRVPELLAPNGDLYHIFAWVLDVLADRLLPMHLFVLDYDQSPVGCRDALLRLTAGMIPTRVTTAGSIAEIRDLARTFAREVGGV
smiles,measurement,setting,value
"Nc1nc(=O)n([C@H]2C[C@H](O)[C@@H](CO)O2)cc1C(F)(F)F [F3 methyl dC, 5-trifluoromethyl-2'-deoxycytidine]",ratio of phosphorylation relative to F3 dT,[1]; chromatographically purified,Approx 1/3
same,nmoles phosphorylated/4 hrs,"[1]; chromatographically purified, value in parentheses (experiment performed twice)",0.06 nmoles/4 hrs
same,nmoles phosphorylated/4 hrs,"[1]; chromatographically purified, value outside parentheses",0.04 nmoles/4 hrs
same,ratio of phosphorylation relative to F3 dT,[1]; standard solutions,Approx 1/4
same,nmoles phosphorylated/4 hrs,"[1]; standard solutions, value in parentheses (experiment performed twice)",0.08 nmoles/4 hrs
same,nmoles phosphorylated/4 hrs,"[1]; standard solutions, value outside parentheses",0.48 nmoles/4 hrs
same,extent of phosphorylation relative to F3 dT,[1]; usual value,1/6
same,metabolic stability,Metabolic stability,substantially increased metabolic stability
same,modification in acetate buffer,[2],did not lead to modification
same,Log10 S.F. vs HSV-1,HSV-1; 0.003 mM,-4.2
same,Log10 S.F. vs HSV-1,HSV-1; 0.03 mM,< -4.6
same,antiviral activity vs HSV-1 compared with F3 dT±H4 U,HSV-1; ±H4 U (FIG. 3),more potent antiviral activity than F3 dT±H4 U
same,Log10 Surviving Fraction of Plaque Forming Units,"HSV-2; 0.003 mM, +H4 U 500 μg/ml (experiment 3 and 4)",-1.9
same,Average Log10 S.F.,"HSV-2; 0.003 mM, average",-1.7
same,Average Log10 S.F.,"HSV-2; 0.03 mM, average",-3.6
same,Log10 Surviving Fraction of Plaque Forming Units,"HSV-2; 0.3 mM, +H4 U 100 μg/ml (experiment 1 and 2)",-3.7
same,Average Log10 S.F.,"HSV-2; 0.3 mM, average",-3.7
same,log reduction at 3 µM,"HSV-2; Human alphaherpesvirus 2, 48 h, 0.003 mM, -H4 U, average, read-out: Average Log10 S.F.",0.94
same,log reduction at 30 µM,"HSV-2; Human alphaherpesvirus 2, 48 h, 0.03 mM, +2'dH4 U 500 μg/ml, read-out: Log10 S.F. HSV-2",3.5
same,log reduction at 30 µM,"HSV-2; Human alphaherpesvirus 2, 48 h, 0.03 mM, +H4 U 500 μg/ml, read-out: Log10 S.F. HSV-2",3.4
same,log reduction at 30 µM,"HSV-2; Human alphaherpesvirus 2, 48 h, 0.03 mM, -H4 U, average, read-out: Average Log10 S.F.",3.2
same,log reduction at 30 µM,"HSV-2; Human alphaherpesvirus 2, 48 h, 0.03 mM, no addition, read-out: Log10 S.F. HSV-2",3.3
same,log reduction at 300 µM,"HSV-2; Human alphaherpesvirus 2, 48 h, 0.3 mM, -H4 U, average, read-out: Average Log10 S.F.",3.7
same,log reduction at 300 µM,"HSV-2; Human alphaherpesvirus 2, 48 h, 0.3 mM, -H4 U, read-out: Log10 Surviving Fraction of Plaque Forming Units",3.7
same,log reduction at 30 µM,"HSV-2; Human alphaherpesvirus 2, 48 h, read-out: Log10 Surviving Fraction of Plaque Forming Units, 0.03 mM, -H4 U",3.1
same,chromatographic change on incubation with cytidine deaminase,cytidine deaminase,formation of an Rf =0.43 spot and disappearance of the 0.80 spot
same,survival at 168 h,"[3]; 50 mg/kg/day for 7 days, coadministered with H4 U",100%
same,survival at 168 h,"[3]; 250 mg/kg once per day for 7 days, H4 U coadministered one hour prior",60%
same,LD50 at 168 h,"[3]; coadministered with H4 U, for 7 days",325 mg/kg
same,solubility in DMSO,Solubility; DMSO,a solvent for the F3 methyl dC
same,solubility in acetone,Solubility; acetone,insoluble in acetone
same,solubility in water,Solubility; water,partially soluble in water
same,% Survival,"HEp-2 cells; 0.003 mM, +H4 U 100 μg/ml (experiment 1 and 2), 3 µM",93%
same,% Survival,"HEp-2 cells; 0.003 mM, +H4 U 500 μg/ml (experiment 3 and 4), 3 µM",61%
same,% Survival,"HEp-2 cells; 0.003 mM, -H4 U, 3 µM",3% and 0.1% and 0.6%
same,% Survival,"HEp-2 cells; 0.03 mM, +H4 U 500 μg/ml (experiment 3 and 4), 30 µM",31%
same,cytotoxicity at concentrations with antiviral activity,HEp-2 cells; +H4 U,only marginally cytotoxic
same,increased survival with H4 dU than with H4 U,HEp-2 cells; F3 methyl dC with H4 dU versus with H4 U,~5 fold
same,therapeutic index,"HEp-2 cells; with H4 U, HSV-2 vs HEp-2 cytotoxicity",high therapeutic index
same,cytotoxicity at concentrations with antiviral activity,HEp-2 cells; without H4 U,extremely cytotoxic
same,cytotoxicity at effective antiviral concentrations,HEp-2 cells; ±H4 U (summary of Table IV),marginal to only moderate cytotoxicity
same,"viability at 48 h, 60 µM",[4]; +2'dH4 U 500 μg/ml,50 ± 5%
same,"viability at 48 h, 60 µM",[4]; +H4 U 500 μg/ml,9 ± 3%
same,"viability at 48 h, 60 µM",[4]; no addition,< 0.006%
same,"viability at 48 h, 3 µM","[4]; % Survival, +H4 U 100 μg/ml (experiment 1 and 2)",100%
same,"viability at 48 h, 3 µM",[4]; [7],53%
same,"viability at 48 h, 30 µM",[4]; [7],25%
same,"viability at 48 h, 300 µM",[4]; [7],0.001%
same,"viability at 48 h, 3 µM","[4]; Average % S, +H4 U, average",77%
same,"viability at 48 h, 3 µM","[4]; Average % S, -H4 U, average",0.95%
same,"viability at 48 h, 30 µM","[4]; Average % S, +H4 U, average",32%
same,"viability at 48 h, 30 µM","[4]; Average % S, -H4 U, average",< 0.01%
same,"viability at 48 h, 300 µM","[4]; Average % S, +H4 U, average",< 0.01%
same,"viability at 48 h, 300 µM","[4]; Average % S, -H4 U, average",< 0.01%
same,conversion to a product that has the same Rf as F3 dT,[5],approximately 98%
same,antiviral activity against cells infected with VZV,[6],selective antiviral activity

# From patent publication US4210638A, “Antiviral composition and method of treating virus diseases” (PCR, Inc., priority 1978, dated 1980)
